This test relates to HeLa cells. The test is described as follows: Cellular localization of BODIPY-ceramide by confocal microscopy. In kind it is cell-based. The following applies: 10 µM inhibitor, 2 h. As to the method: 5.1 Cellular Localization of BODIPY-Ceramide
HeLa cells were seeded in 8 well chamber slides (ibidi µ-Slide 8 Well) in RPMI 1640 medium supplemented with 10% (v/v) heat‐inactivated FCS, 1 mM sodium pyruvate and 2 mM L-glutamine at 37 °C and 5% (v/v) CO2 in a humidified incubator. The day after, cells were incubated with inhibitors for 2 h at a concentration of 10 µM or left untreated by replacing the medium with fresh medium supplemented with the respective inhibitors. After 2 h of incubation, BODIPY FL C5-ceramide (Thermo Fisher) was added to a final concentration of 0,25 µM and imaging was immediately done using an LSM 780 laser scanning confocal microscope (Carl Zeiss). No additional wash steps were performed. After 1 h of incubation, DNA was counterstained using Hoechst 33342. For quantification of BODIPY-Ceramide trafficking, cells were transfected with pECFP-GalT the day before inhibitor incubation for the expression of an eCFP fusion of the human galactosyltransferase (GalT; amino acids 1-60), which localizes at the Golgi apparatus. After incubation with the respective inhibitors (see above), cells were imaged at 30 min post addition of BODIPY FL C5-ceramide. Mean BODIPY intensities of regions of interest surrounding eCFP-GalT-positive Golgi stacks were measured (40 cells per biological replicate, 4 biological replicates in total) using ImageJ software (Rasband, W.S., ImageJ, U. S. National Institutes of Health, Bethesda, Maryland, USA, https://imagej.nih.gov/ij/, 1997-2018) and divided by the total BODIPY intensity detected in the field of view. Quantification (Fig 10B) is expressed as normalized intensity ratio (GA/total).
Figure S10. A Uptake of BODIPY FL C5-ceramide to HeLa cells assessed by normalized fluorescence intensity B Distribution of BODIPY FL C5-ceramide by normalized fluorescence […]
(1 picture or pasted object on this page, not shown here)
Figure S11. BODIPY-Ceramide trafficking. Confocal images showing distribution of BODIPY FL C5-ceramide (green) and Golgi apparatus costaining (eCFP-GalT; blue) in HeLa cells pretreated with 10 µM of respective inhibitors or left untreated. Figures show representative images (n = 4 biological replicates with 40 cells per biological replicate); scale bars, 10 µm.

Turning to `CCCC(=O)OCOC(=O)C1=C(C)NC(C)=C(C(=O)OC)C1c1cccc(Cl)c1Cl` (stereo not shown) [6B11, Clevidipine butyrate], the “effect on intracellular distribution of BODIPY-Cer” value (from here on “effect”) is “only minor effects”. For `O=C(NC1CCN(CCCCC2(C(=O)NCC(F)(F)F)c3ccccc3-c3ccccc32)CC1)c1ccccc1-c1ccc(C(F)(F)F)cc1` [8E8, lomitapide], the “effect” value is “significantly influenced”. On to `CC1=NN(c2ccc(C)c(C)c2)C(=O)/C1=N\Nc1cccc(-c2cccc(C(=O)O)c2)c1O` [17C9, Eltrombopag], for which the “effect” value is reported as “only minor effects”.

Regarding `Cc1cc(C2=NOC(c3cc(Cl)cc(Cl)c3)(C(F)(F)F)C2)ccc1C(=O)NCC(=O)NCC(F)(F)F` (stereo not shown) [20D5, Fluralaner], the “effect” value is “significantly influenced”.

For the origin of these results see paper PMC7756341, “Liposomal FRET Assay Identifies Potent Drug‐Like Inhibitors of the Ceramide Transport Protein (CERT)” (Chemistry (Weinheim an Der Bergstrasse, Germany), 2020).
